Data as given in ChEMBL document CHEMBL6103586, “Optimization of pyrazole/1,2,4-triazole as dual EGFR/COX-2 inhibitors: Design, synthesis, anticancer potential, apoptosis induction and cell cycle analysis” (Eur J Med Chem, 2025).

Columns and labels:
[1] = biological target: Prostaglandin G/H synthase 1 (Homo sapiens, UniProt P23219)
Description: Inhibition of COX-1 (unknown origin) using arachidonic acid as substrate by fluorescence based analysis

[2] = tested on: MCF7; assay: Cytotoxicity against human MCF7 cells assessed as cell growth inhibition measured after 24 hrs by spectrophotometry based MTT assay; type: functional; settings: MCF7, 24 h
[3] = tested on: HT-29; assay: Cytotoxicity against human HT-29 cells assessed as cell growth inhibition measured after 24 hrs by spectrophotometry based MTT assay; type: functional; settings: HT-29, 24 h
[4] = tested on: A549; assay: Cytotoxicity against human A549 cells assessed as cell growth inhibition measured after 24 hrs by spectrophotometry based MTT assay; type: functional; settings: A549, 24 h
[5] = biological target: Epidermal growth factor receptor (Homo sapiens, UniProt P00533); assay: Inhibition of human wild-type EGFR by Kinase-Glo assay
Epidermal growth factor receptor (Homo sapiens, UniProt P00533), sequence (P00533 whole entry): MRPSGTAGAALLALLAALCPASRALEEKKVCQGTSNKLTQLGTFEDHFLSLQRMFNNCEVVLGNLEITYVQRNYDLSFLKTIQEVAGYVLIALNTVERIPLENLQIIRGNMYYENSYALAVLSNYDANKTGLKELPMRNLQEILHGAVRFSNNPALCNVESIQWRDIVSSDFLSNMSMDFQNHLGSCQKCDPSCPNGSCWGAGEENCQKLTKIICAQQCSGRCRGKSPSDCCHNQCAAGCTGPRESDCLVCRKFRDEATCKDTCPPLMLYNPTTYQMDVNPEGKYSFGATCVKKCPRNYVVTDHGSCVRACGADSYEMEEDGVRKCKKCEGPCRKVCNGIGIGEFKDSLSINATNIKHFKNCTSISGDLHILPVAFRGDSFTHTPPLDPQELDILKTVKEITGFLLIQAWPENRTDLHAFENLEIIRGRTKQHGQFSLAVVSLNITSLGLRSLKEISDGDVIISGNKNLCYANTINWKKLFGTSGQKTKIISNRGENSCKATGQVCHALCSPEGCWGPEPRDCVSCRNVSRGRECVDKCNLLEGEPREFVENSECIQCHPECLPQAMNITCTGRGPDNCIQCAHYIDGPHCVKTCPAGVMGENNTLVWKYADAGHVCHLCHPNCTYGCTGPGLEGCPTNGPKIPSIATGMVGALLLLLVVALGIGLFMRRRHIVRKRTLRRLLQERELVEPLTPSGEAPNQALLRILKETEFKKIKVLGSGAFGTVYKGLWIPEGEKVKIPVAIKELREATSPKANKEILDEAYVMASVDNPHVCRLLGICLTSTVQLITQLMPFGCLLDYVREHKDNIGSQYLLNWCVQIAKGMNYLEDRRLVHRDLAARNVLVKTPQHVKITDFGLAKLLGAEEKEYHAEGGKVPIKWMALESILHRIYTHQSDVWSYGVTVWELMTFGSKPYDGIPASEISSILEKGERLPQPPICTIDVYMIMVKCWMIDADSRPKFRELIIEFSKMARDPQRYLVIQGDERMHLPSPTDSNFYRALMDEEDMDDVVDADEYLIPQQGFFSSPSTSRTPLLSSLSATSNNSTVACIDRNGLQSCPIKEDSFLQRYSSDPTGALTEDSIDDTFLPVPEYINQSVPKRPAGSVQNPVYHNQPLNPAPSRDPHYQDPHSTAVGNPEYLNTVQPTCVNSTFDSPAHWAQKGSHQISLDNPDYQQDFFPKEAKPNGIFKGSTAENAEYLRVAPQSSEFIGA

[6] = biological target: Epidermal growth factor receptor (Homo sapiens, UniProt P00533, T790M); assay: Inhibition of human EGFR T790M mutant by Kinase-Glo assay
Epidermal growth factor receptor (Homo sapiens, UniProt P00533, T790M), sequence (P00533 25-1210 T790M limits assumed): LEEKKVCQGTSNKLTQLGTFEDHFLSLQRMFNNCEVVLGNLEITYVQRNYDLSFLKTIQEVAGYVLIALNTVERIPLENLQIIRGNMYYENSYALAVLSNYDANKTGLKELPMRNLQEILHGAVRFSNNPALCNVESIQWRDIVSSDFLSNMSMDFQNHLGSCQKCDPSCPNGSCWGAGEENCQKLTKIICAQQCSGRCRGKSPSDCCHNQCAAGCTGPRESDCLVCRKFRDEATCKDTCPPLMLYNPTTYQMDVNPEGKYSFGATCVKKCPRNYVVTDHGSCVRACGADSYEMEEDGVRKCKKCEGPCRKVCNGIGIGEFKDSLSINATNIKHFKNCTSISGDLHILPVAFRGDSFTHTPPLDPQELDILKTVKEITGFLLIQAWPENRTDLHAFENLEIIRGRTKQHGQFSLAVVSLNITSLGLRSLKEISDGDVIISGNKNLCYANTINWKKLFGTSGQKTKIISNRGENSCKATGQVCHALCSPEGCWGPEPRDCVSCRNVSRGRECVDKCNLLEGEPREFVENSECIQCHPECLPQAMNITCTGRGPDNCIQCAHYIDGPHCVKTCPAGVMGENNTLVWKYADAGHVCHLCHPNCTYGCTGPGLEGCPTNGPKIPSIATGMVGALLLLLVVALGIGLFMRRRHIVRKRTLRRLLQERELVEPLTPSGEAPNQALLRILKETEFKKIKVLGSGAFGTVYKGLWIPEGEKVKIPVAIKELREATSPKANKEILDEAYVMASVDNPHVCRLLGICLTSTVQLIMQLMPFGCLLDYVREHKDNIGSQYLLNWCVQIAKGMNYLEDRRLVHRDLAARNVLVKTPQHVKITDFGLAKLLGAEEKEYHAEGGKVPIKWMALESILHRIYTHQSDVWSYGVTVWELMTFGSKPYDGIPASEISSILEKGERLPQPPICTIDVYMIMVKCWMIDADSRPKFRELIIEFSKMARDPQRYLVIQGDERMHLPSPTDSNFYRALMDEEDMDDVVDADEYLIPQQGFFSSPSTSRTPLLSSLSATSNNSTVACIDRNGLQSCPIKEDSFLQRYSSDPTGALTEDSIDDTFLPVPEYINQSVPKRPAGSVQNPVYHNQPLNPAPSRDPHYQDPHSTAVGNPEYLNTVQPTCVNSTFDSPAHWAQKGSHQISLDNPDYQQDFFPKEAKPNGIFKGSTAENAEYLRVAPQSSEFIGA

[7] = tested on: MCF7; assay: Induction of cell cycle arrest in human MCF-7 cells assessed as accumulation of cells at G0/G1 phase cells at 1.207 uM incubated for 24 hrs by propidium iodide based flow cytometry analysis (reference value: 66.25%); type: functional
[8] = tested on: MCF7; assay: Induction of cell cycle arrest in human MCF-7 cells assessed as accumulation of cells at S phase cells at 1.207 uM incubated for 24 hrs by propidium iodide based flow cytometry analysis (reference value: 23.88%); type: functional
[9] = tested on: MCF7; assay: Induction of cell cycle arrest in human MCF-7 cells assessed as accumulation of cells at G2/M phase cells at 1.207 uM incubated for 24 hrs by propidium iodide based flow cytometry analysis (reference value: 9.87%); type: functional
[10] = tested on: MCF7; assay: Induction of apoptosis in human MCF7 cells assessed as early apoptotic cells at 1.207 uM incubated for 24 hrs by Annexin V-FITC/PI staining based flow cytometry analysis (reference value: 0.36%); type: functional
[11] = tested on: MCF7; assay: Induction of apoptosis in human MCF7 cells assessed as late apoptotic cells at 1.207 uM incubated for 24 hrs by Annexin V-FITC/PI staining based flow cytometry analysis (reference value: 0.11%); type: functional
[12] = tested on: MCF7; assay: Induction of apoptosis in human MCF7 cells assessed as necrotic cells at 1.207 uM incubated for 24 hrs by Annexin V-FITC/PI staining based flow cytometry analysis (reference value: 2.04%); type: functional
[13] = tested on: MCF7; assay: Induction of apoptosis in human MCF7 cells assessed as total apoptotic cells at 1.207 uM incubated for 24 hrs by Annexin V-FITC/PI staining based flow cytometry analysis (reference value: 2.51%); type: functional

Prostaglandin G/H synthase 1, sequence (P23219 whole entry): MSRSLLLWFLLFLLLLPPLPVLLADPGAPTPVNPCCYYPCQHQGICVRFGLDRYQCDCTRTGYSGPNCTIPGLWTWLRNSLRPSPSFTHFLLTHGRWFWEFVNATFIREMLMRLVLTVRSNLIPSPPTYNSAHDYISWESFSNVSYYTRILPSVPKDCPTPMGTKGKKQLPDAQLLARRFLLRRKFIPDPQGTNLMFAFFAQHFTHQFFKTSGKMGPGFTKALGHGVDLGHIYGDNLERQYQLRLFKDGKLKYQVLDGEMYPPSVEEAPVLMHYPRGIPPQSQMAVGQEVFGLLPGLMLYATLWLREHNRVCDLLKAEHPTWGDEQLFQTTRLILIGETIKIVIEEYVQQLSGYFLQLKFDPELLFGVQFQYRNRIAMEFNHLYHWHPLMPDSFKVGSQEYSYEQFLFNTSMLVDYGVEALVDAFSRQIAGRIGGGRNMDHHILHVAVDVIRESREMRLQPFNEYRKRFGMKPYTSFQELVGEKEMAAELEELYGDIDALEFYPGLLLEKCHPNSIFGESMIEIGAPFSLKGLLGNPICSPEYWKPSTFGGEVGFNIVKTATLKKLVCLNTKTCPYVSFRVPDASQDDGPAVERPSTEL

Structure (SMILES)	IC50 [2] [µM]	IC50 [3] [µM]	IC50 [4] [µM]	further results
COc1ccc(C=Nn2c(S)nnc2-c2cnn(-c3ccc(S(C)(=O)=O)cc3)c2C)cc1OC	5.14	9.23	2.38	IC50 [1]: 14.5 µM; IC50 [5]: 0.216 µM; IC50 [6]: 0.135 µM
Cc1ccc(-c2cc(C(F)(F)F)nn2-c2ccc(S(N)(=O)=O)cc2)cc1 [CELECOXIB]	16.5	41.5	21.7	
COc1cccc(C=Nn2c(S)nnc2-c2cnn(-c3ccc(S(C)(=O)=O)cc3)c2C)c1OC	22	28.1	13.5	
COc1cc(C=Nn2c(S)nnc2-c2cnn(-c3ccc(S(C)(=O)=O)cc3)c2C)cc(OC)c1OC	48.5	51.5	35.9	
Cc1c(-c2nnc(S)n2N=Cc2ccc([N+](=O)[O-])cc2)cnn1-c1ccccc1	12.8	10.6	6.38	
COc1ccc(C=Nn2c(S)nnc2-c2cnn(-c3ccccc3)c2C)cc1OC	20.2	13.1	18.6	
Cc1c(-c2nnc(S)n2N=Cc2ccc(N(C)C)cc2)cnn1-c1ccccc1	7.46	2.93	3.78	IC50 [1]: 36 µM; IC50 [5]: 0.423 µM; IC50 [6]: 0.764 µM
COc1cc(C=Nn2c(S)nnc2-c2cnn(-c3ccccc3)c2C)cc(OC)c1OC	33.2	22.5	17.2	
C=CC(=O)Nc1cc(Nc2nccc(-c3cn(C)c4ccccc34)n2)c(OC)cc1N(C)CCN(C)C [OSIMERTINIB]	3.45	0.75	1.66	
COc1cccc(C=Nn2c(S)nnc2-c2cnn(-c3ccccc3)c2C)c1OC	41.6	73.7	14.8	
Cc1c(-c2nnc(S)n2N=Cc2ccc(N(C)C)cc2)cnn1-c1ccc(S(C)(=O)=O)cc1	10.5	13.9	31.8	
Cc1c(-c2nnc(S)n2N=Cc2ccc(F)cc2)cnn1-c1ccc(S(C)(=O)=O)cc1	1.2	5.14	14.8	IC50 [1]: 20.1 µM; IC50 [5]: 0.121 µM; IC50 [6]: 0.076 µM; Activity [7]: 47.64%; Activity [8]: 13.21%; Activity [9]: 39.15%; Activity [10]: 22.81%; Activity [11]: 9.57%; Activity [12]: 6.29%; Activity [13]: 38.67%
Cc1c(-c2nnc(S)n2N=Cc2ccc([N+](=O)[O-])cc2)cnn1-c1ccc(S(C)(=O)=O)cc1	4.95	13	4.89	
Cc1c(-c2nnc(S)n2N=Cc2ccc(F)cc2)cnn1-c1ccccc1	16.9	12	7.27	
